From article PMC12073402, “A Selective MAP3K1 Inhibitor Facilitates Discovery of NPM1 as a Member of the Network” (Molecules, 2025)

How the values were obtained:
Assay in all cases: KiNativ kinome profiling in PANC-1 lysate
Type in all cases: binding
[1] = tested on: FGFR1, FMS, PDGFRb, TYRO3; conditions: 5 µM; Lys1; VAVKMLK
Outline: (§1)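 PANC-1 lysates were incubated with 5 μM inhibitor or DMSO, then labeled with a desthiobiotin-ATP acyl-phosphate probe that biotinylates conserved kinase lysines. Tryptic peptides were streptavidin-enriched and quantified by LC-MS/MS, reported as % change in MS signal from duplicate treated and duplicate control samples.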

DCAMKL2 = target: T1, DCAMKL2 (Homo sapiens, UniProt Q8N568); conditions: Lys2
T1 construct: endogenous in cells; host or cells: PANC-1 lysate
Outline: as §1

MST3, MST4, YSK1 = conditions: 5 µM; ATP Loop; LADFGVAGQLTDTQIKR
Outline: as §1

PDK1 = target: T2, PDK1 (Homo sapiens, UniProt O15530); conditions: Lys1
T2 construct: endogenous in cells; host or cells: PANC-1 cell lysate
Outline: as §1

PKCa, PKCb = conditions: 5 µM; Lys2; DLKLDNVMLDSEGHIK
Outline: as §1

STLK5 = target: T3, STLK5 (Homo sapiens, UniProt Q7RTN6)
T3 construct: endogenous in cells; host or cells: PANC-1 cell lysate
Outline: as §1

PITSLRE = PITSLRE (Homo sapiens, UniProt P21127); conditions: Lys2
Outline: as §1

SBK = target: T4, SBK (Homo sapiens, UniProt Q52WX2); conditions: Lys2
T4 construct: endogenous in cells; host or cells: PANC-1 cell lysate
Outline: as §1

CDC2 = target: T5, CDC2 (Homo sapiens, UniProt P06493)
T5 construct: endogenous in cells; host or cells: PANC-1 cell lysate
Outline: as §1

EphB4 = target: T6, EphB4 (Homo sapiens, UniProt P54760); conditions: ATP Loop
T6 construct: endogenous in cells; host or cells: PANC-1 lysate
Outline: as §1

[2] = tested on: CaMK2a, CaMK2b, CaMK2d, CaMK2g; conditions: 5 µM; Lys2; DLKPENLLLASK
Outline: as §1

MST4, YSK1 = conditions: 5 µM; Lys2; DIKAANVLLSEQGDVK
Outline: as §1

PKN1 = target: T7, PKN1 (Homo sapiens, UniProt Q16512)
T7 construct: endogenous in cells; host or cells: PANC-1 cell lysate
Outline: as §1

CHK2 = target: T8, CHK2 (Homo sapiens, UniProt O96017)
T8 construct: endogenous in cells; host or cells: PANC-1 cell lysate
Outline: as §1

FAK = target: T9, FAK (Homo sapiens, UniProt Q05397)
T9 construct: endogenous in cells; host or cells: PANC-1 lysate
Outline: as §1

PAN3 = target: T10, PAN3 (Homo sapiens, UniProt Q58A45); conditions: ATP
T10 construct: endogenous in cells; host or cells: PANC-1 cell lysate
Outline: as §1

ITPK1 = target: T11, ITPK1 (Homo sapiens, UniProt Q13572); conditions: ATP Loop
T11 construct: we opted to conduct a kinome screen (KiNativ) in PANC-1 cell lysates; endogenous in cells; host or cells: PANC-1 cell lysate
Outline: as §1

MAPKAPK2, MAPKAPK3 = conditions: 5 µM; Lys2; DVKPENLLYTSK
Outline: as §1

HER2/ErbB2 = target: T12, HER2/ErbB2 (Homo sapiens, UniProt P04626)
T12 construct: we opted to conduct a kinome screen (KiNativ) in PANC-1 cell lysates; endogenous in cells; host or cells: PANC-1 cell lysate
Outline: as §1

SRPK2 = target: T13, SRPK2 (Homo sapiens, UniProt P78362); conditions: Lys2
T13 construct: endogenous in cells; host or cells: PANC-1 cell lysate
Outline: as §1

NEK3 = target: T14, NEK3 (Homo sapiens, UniProt P51956); conditions: ATP Loop
T14 construct: endogenous in cells; host or cells: PANC-1 cell lysate
Outline: as §1

CK1g1, CK1g2, CK1g3 = conditions: 5 µM; ATP Loop; KIGCGNFGELR
Outline: as §1

MAP3K15, MAP3K5, MAP3K6 = target: T15, MAP3K15, MAP3K5, MAP3K6 (Homo sapiens, UniProt Q6ZN16); conditions: 5 μM; PANC-1 lysate
T15 construct: endogenous in cells; host or cells: PANC-1 cell lysate
Outline: as §1

AurA, AurB, AurC = conditions: 5 µM; ATP Loop; GKFGNVYLAR
Outline: as §1

PFTAIRE1 = target: T16, PFTAIRE1 (Homo sapiens, UniProt O94921); conditions: Lys1
T16 construct: endogenous in cells; host or cells: PANC-1 cell lysate
Outline: as §1

T5 sequence (P06493 whole entry): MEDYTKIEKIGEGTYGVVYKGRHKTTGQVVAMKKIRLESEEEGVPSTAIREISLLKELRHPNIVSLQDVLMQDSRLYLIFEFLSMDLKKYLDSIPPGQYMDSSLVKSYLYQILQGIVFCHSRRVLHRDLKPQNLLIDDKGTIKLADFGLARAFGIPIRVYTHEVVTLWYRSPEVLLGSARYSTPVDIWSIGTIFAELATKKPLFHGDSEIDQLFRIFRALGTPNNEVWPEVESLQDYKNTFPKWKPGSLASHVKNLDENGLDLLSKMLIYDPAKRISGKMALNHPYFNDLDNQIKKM
T7 sequence (Q16512 whole entry): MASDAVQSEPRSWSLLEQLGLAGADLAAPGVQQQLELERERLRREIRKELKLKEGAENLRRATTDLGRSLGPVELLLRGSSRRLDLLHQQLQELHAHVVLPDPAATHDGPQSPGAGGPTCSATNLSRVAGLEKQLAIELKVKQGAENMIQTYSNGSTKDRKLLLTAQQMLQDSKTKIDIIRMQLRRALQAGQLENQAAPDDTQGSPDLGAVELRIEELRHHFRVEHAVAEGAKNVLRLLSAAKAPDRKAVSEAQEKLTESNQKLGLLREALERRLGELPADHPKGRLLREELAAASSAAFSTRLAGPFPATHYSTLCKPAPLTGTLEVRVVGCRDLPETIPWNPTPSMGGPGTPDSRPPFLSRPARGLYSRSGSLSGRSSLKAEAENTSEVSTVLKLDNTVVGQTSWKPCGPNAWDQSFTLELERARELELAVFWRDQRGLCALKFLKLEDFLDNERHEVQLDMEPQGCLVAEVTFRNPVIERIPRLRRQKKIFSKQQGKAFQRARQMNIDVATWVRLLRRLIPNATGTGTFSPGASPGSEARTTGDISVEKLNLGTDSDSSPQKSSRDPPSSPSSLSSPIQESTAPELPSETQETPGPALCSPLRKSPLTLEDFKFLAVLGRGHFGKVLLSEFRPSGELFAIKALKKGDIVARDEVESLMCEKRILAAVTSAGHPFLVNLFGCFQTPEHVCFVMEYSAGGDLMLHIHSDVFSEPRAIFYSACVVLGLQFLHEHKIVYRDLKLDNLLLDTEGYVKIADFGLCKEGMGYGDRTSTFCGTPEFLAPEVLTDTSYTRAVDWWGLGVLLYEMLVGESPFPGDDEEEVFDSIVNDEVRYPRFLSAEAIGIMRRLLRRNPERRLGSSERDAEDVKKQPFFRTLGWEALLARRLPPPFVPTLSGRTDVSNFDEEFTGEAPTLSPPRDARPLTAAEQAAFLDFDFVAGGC
T10 sequence (Q58A45 whole entry): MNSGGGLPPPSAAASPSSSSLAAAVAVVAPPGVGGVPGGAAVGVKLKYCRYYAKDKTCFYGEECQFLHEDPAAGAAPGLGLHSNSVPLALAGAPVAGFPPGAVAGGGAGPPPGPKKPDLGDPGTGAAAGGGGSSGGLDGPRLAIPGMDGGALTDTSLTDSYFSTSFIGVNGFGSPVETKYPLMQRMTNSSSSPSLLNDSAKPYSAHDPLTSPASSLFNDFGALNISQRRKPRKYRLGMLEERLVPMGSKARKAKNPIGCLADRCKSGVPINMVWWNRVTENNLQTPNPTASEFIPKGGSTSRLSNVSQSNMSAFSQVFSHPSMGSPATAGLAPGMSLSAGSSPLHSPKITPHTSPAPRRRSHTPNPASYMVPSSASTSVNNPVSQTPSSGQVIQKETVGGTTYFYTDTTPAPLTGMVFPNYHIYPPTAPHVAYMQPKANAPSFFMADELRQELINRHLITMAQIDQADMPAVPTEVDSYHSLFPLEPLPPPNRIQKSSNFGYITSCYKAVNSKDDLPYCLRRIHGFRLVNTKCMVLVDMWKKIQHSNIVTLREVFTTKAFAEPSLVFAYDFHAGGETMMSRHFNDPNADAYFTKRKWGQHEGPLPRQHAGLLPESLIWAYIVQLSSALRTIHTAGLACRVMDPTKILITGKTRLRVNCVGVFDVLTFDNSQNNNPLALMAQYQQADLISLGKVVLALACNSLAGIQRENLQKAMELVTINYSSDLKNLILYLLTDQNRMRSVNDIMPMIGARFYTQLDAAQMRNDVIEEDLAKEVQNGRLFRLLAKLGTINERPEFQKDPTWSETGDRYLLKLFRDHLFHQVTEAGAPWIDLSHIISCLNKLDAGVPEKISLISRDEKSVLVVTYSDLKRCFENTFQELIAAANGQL
T3 sequence (Q7RTN6 whole entry): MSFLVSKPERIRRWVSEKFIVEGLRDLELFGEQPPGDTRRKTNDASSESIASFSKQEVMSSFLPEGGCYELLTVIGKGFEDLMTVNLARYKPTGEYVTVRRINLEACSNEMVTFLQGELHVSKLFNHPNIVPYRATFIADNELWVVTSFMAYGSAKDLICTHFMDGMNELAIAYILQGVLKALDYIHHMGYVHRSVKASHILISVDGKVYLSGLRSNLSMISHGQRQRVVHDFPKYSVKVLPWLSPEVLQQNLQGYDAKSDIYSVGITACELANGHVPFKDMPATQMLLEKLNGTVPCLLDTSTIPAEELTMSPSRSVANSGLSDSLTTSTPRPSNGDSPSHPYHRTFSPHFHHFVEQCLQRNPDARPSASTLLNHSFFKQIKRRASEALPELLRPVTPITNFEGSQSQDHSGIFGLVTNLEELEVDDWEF
T12 sequence (P04626 23-1255): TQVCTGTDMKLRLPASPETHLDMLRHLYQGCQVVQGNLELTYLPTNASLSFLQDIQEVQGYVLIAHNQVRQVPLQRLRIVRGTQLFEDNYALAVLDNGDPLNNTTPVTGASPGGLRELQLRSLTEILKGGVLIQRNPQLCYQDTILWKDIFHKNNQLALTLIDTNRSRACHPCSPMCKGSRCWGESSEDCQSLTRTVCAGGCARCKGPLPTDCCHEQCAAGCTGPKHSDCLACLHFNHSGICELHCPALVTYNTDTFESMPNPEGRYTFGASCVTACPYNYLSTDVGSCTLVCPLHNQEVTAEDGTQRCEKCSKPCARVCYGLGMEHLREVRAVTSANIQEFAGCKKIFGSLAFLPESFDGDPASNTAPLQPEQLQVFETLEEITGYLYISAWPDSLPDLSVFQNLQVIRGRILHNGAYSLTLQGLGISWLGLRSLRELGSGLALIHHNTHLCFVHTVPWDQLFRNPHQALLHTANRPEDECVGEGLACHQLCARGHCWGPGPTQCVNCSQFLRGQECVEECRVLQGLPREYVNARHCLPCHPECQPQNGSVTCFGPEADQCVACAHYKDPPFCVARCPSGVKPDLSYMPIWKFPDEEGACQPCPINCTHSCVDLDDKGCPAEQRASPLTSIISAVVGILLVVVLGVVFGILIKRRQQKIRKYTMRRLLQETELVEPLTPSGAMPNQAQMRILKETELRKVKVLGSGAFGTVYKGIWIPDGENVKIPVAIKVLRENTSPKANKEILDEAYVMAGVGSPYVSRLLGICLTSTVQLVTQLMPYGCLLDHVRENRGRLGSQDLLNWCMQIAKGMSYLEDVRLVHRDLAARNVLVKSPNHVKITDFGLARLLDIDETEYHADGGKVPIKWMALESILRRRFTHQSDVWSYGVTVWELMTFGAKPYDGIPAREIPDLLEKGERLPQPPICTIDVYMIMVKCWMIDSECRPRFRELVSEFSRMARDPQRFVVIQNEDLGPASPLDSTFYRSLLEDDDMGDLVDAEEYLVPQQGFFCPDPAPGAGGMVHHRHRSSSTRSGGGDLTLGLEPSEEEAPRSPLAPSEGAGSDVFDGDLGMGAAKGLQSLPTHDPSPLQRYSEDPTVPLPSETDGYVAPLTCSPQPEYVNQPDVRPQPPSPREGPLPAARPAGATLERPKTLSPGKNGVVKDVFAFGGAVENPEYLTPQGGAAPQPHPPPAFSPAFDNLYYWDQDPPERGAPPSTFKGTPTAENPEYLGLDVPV
T9 sequence (Q05397 whole entry): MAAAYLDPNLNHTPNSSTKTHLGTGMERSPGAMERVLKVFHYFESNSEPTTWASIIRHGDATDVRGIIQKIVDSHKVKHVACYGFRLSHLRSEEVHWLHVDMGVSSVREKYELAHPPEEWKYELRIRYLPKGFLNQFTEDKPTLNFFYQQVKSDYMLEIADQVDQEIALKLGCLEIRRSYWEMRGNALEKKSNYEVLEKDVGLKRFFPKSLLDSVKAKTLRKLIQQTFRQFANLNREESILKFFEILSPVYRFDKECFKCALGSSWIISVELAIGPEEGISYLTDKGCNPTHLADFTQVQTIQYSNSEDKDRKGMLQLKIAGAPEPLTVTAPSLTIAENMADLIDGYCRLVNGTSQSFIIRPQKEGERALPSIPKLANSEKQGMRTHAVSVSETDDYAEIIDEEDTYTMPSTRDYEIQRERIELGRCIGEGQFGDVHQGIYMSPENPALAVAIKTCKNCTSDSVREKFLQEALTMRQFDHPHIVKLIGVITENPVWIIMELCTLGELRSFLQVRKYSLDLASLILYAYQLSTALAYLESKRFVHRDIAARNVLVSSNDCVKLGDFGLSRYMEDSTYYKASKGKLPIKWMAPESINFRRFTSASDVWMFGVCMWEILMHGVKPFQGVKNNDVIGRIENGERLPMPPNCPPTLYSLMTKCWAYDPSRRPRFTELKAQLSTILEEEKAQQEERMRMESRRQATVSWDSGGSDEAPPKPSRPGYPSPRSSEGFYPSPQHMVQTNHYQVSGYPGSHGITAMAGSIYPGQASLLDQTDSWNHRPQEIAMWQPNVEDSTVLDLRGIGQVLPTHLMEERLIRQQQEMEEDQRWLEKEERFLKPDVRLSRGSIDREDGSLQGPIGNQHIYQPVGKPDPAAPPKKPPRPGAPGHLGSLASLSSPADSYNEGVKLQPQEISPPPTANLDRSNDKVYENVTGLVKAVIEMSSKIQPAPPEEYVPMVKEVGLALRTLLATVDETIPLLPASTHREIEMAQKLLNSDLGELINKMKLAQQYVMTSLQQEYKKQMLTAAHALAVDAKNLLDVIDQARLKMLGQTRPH

SMILES: Cn1cc(-c2cnc3ccc(NC(=O)Nc4ccc(F)c(C(F)(F)F)c4)cc3n2)cn1 [51-106, 1-(4-Fluoro-3-(trifluoromethyl)phenyl)-3-(3-(1-methyl-1H-pyrazol-4-yl)quinoxalin-6-yl)urea]
- % Inhibition [1]: NB (NB = No Binding (≤ 0))
- inhibition at 5 µM (DCAMKL2): ≤ 0%
- % Inhibition (MST3, MST4, YSK1): NB (NB = No Binding (≤ 0))
- inhibition at 5 µM (PDK1): ≤ 0%
- % Inhibition (PKCa, PKCb): NB (NB = No Binding (≤ 0))
- % Inhibition (STLK5; 5 µM, Lys2, SVKASHILISVDGK): NB (NB = No Binding (≤ 0))
- inhibition at 5 µM (STLK5; ATP Loop, […]): ≤ 0%
- inhibition at 5 µM (PITSLRE): ≤ 0%
- inhibition at 5 µM (SBK): ≤ 0%
- inhibition at 5 µM (CDC2; Lys1, TTGQVVAMKK): 20.3%
- inhibition at 5 µM (CDC2; Lys2, DLKPQNLLIDDK): ≤ 0%
- inhibition at 5 µM (CDC2; Protein Kinase Domain, KPLFHGDSEIDQLFR): ≤ 0%
- inhibition at 5 µM (EphB4): 1.6%
- % Inhibition [2]: NB (NB = No Binding (≤ 0))
- % Inhibition (MST4, YSK1): 12.8%
- inhibition at 5 µM (PKN1; Lys1, VLLSEFRPSGELFAIKALK): ≤ 0%
- inhibition at 5 µM (PKN1; Lys2, DLKLDNLLLDTEGYVK): 14.3%
- inhibition at 5 µM (CHK2; Lys1, VAIKIISK): 14.8%
- inhibition at 5 µM (CHK2; Lys2, DLKPENVLLSSQEEDCLIK): ≤ 0%
- inhibition at 5 µM (FAK; ATP Loop, YMEDSTYYKASK): 22.5%
- inhibition at 5 µM (FAK; Lys1, CIGEGQFGDVHQGIYMSPENPALAVAIKTCK): 2.8%
- inhibition at 5 µM (PAN3; IQKSSNFGYITSCYK): ≤ 0%
- inhibition at 5 µM (PAN3; VMDPTKILITGK): 4.4%
- inhibition at 5 µM (ITPK1): ≤ 0%
- % Inhibition (MAPKAPK2, MAPKAPK3): NB (NB = No Binding (≤ 0))
- inhibition at 5 µM (HER2/ErbB2; ATP Loop, LLDIDETEYHADGGKVPIK): ≤ 0%
- inhibition at 5 µM (HER2/ErbB2; Lys1, GIWIPDGENVKIPVAIKVLR): 15.6%
- inhibition at 5 µM (SRPK2): ≤ 0%
- inhibition at 5 µM (NEK3): 5.1%
- % Inhibition (CK1g1, CK1g2, CK1g3): 11.7%
- inhibition of MAP3K15 (in words) (MAP3K15, MAP3K5, MAP3K6): did not inhibit
- % Inhibition (AurA, AurB, AurC): NB (NB = No Binding (≤ 0))
- inhibition at 5 µM (PFTAIRE1): 7.7%
